The text below walks through data of patent US20090258836A1, “EFFECTIVE DELIVERY OF CROSS-SPECIES A3 ADENOSINE-RECEPTOR ANTAGONISTS TO REDUCE INTRAOCULAR PRESSURE” (The Trustees of The University of Pennsylvania, priority 2006, published 2009).

Molecules are shown by their SMILES. Entries after “also recorded” stand apart in the source; their conditions may differ.

One test concerns cultured human NPE cells. Particulars: 10 μM adenosine; cited from earlier work.
The subject of test [1] is HCE (human ciliary epithelial) cell line, NPE cells. As to the kind of experiment: Cell volume in isosmotic solution (isosmotic shrinkage), Coulter Counter. The test is classed as cell-based. In a few lines:
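Immortalized human NPE (HCE) cells, 8-13 days post-passage at confluence, suspended in isosmotic solution with test agents or matched vehicle. Volume measured by Coulter Counter as peak of distribution, normalized to first time point; shrinkage fit to monoexponential by nonlinear least squares for steady-state volume and time constant.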

A further test concerns the target T1, human A1 receptors (Homo sapiens, UniProt P30542).
T1 sequence (P30542 1-326): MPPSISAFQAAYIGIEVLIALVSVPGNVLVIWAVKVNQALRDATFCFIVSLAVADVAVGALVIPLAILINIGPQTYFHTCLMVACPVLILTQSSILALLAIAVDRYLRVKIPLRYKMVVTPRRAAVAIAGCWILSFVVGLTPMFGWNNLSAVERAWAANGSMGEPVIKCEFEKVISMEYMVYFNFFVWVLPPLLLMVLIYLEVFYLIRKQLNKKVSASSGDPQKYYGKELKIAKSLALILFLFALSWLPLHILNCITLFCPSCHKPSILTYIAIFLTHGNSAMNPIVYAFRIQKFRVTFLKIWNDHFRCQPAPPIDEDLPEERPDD
Particulars: literature; read-out: Ki for the binding to human A1 receptors; cited from earlier work.

Another test has as its target human A2A receptors (Homo sapiens, UniProt P29274). Particulars: literature; read-out: Ki for the binding to human A2A receptors; cited from earlier work.
Test [2] concerns the target T2, recombinant human A2B receptors (Homo sapiens, UniProt P29275).
T2 sequence (P29275 1-332): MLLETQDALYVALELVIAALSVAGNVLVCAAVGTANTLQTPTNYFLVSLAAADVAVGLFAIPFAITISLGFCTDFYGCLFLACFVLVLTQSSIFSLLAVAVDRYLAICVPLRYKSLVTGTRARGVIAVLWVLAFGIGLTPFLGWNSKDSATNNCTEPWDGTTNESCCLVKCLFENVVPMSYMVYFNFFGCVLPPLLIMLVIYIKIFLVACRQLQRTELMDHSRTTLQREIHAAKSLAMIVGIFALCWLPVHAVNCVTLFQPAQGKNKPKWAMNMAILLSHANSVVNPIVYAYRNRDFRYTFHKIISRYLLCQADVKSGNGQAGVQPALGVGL
As to the kind of experiment: Radioligand binding to recombinant human A2B receptors. Particulars: 10 μM.

As usually defined, the Ki is a dissociation constant, usually derived from enzyme kinetics or from competition with a known ligand.

Sequence of human A2A receptors (P29274 whole entry): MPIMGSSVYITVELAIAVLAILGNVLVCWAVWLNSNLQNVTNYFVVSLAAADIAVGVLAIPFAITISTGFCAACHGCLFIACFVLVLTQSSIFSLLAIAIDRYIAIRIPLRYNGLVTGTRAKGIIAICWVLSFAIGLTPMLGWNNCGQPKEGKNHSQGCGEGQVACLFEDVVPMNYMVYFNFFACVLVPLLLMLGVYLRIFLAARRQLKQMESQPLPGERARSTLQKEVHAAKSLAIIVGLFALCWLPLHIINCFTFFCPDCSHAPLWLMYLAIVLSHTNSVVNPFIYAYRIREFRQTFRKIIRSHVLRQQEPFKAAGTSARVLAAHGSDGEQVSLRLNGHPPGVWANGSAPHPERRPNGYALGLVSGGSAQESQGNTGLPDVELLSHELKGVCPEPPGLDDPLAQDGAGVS

As to `CCOC(=O)C1=C(C)NC(c2ccccc2)=C(C(=O)OCc2ccccc2)C1C#Cc1ccccc1` (racemic) [MRS-1191, 3-ethyl 5-benzyl-2-methyl-6-phenyl-4-phenylethynyl-1,4-(±)-dihydropyridine-3,5-dicarboxylate], the “effect of antagonist on adenosine-treated cells” value in the test on cultured human NPE cells is reported as “displayed no exponential shrinkage”. For the same compound, the “effect of A3 antagonist on IB-MECA-triggered isosmotic shrinkage of NPE cells” value in test [1] (100 nM IB-MECA, 2 min preincubation with 300 nM MRS-1097 or 100 nM MRS-1191) was “prevented characteristic shrinkage; also recorded: prevented the shrinkage”. Also, in test [1] (100 nM MRS-1191), the “effect on cell volume in the absence of IB-MECA” value is given as “did not affect cell volume”. Moreover, the “effect of A3 antagonist on isosmotic shrinkage triggered by CGS-21680” value in test [1] (3 μM CGS-21680, preincubation with 100 nM MRS-1191) was “abolished this effect; also recorded: blocked; also recorded: prevented the shrinkage”. In addition, the “effect of A3 antagonist on adenosine-stimulated isotonic shrinkage of NPE cells” value in test [1] (10 μM adenosine, 2 min preincubation with 300 nM MRS-1097, 100 nM MRS-1191 or 100 nM MRS-1523) is “prevented the characteristic shrinkage; also recorded: blocked the shrinkage”. Besides, the Ki at human A1 receptors is 40.1 µM; on human A2A receptors, above 100 µM. For the same compound, the “displacement of radioligand binding” value in test [2] is “did not displace radioligand binding”.
